# Reference: US20110312984A1, “STAT3 INHIBITORS” (priority 2008, published 2011)
# How the values were obtained:
# Type in all cases: cell-based
# Stat1 = target: T1, Stat1 (Homo sapiens, UniProt P42224); experiment: Immunoblot assay: IFN-γ-mediated phosphorylation of Stat1 in HepG2 cells; settings: 300 μM, 1 hour at 37° C. before IFN-γ stimulation
# T1 construct: endogenous in cells; host or cells: HepG2
# T1 sequence (P42224 1-750): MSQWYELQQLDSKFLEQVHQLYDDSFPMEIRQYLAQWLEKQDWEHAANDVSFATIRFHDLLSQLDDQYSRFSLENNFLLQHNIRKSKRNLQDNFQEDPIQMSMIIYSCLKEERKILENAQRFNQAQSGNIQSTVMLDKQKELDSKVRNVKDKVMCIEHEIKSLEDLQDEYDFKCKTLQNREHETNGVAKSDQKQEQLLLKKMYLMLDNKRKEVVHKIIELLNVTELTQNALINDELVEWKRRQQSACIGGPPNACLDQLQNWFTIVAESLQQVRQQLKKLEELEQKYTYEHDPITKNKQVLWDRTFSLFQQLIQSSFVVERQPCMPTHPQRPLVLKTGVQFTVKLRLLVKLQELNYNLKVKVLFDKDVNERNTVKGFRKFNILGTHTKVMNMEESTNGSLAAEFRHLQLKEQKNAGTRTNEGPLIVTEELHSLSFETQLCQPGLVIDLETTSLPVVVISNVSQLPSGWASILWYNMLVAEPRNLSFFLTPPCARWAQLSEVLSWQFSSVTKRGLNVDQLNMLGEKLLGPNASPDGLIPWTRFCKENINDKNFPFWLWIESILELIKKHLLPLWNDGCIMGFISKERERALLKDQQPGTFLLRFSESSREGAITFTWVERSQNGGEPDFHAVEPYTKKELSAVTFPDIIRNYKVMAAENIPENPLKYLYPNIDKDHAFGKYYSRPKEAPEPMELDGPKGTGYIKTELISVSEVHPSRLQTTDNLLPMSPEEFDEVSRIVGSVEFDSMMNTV
# Protocol: Immunoblot assay. The human hepatocellular carcinoma cell line (HepG2) was grown in 6-well plates under standard conditions. Cells were pretreated with compounds (0, 1, 3, 10, 30, 100 and 300 uM) for 1 hour then stimulated under optimal conditions with either interferon gamma (IFN-γ; 30 ng/ml for 30 min) to activate Stat1 or interleukin-6 (IL-6; 30 ng/ml for 30 min) to activate Stat3 (30-31). Cultures were then harvested and proteins extracted using high-salt buffer, as described (Shao et al., 2006). Briefly, extracts were mixed with 2× sodium dodecyl sulfate (SDS) sample buffer (125 mmol/L Tris-HCL pH 6.8; 4% SDS; 20% glycerol; 10% 2-mercaptoethanol) at a 1:1 ratio and heated for 5 minutes at 100° C. Proteins (20 μg) were separated by 7.5% SDS-PAGE and transferred to polyvinylidene fluoride (PVDF) membrane (Millipore, Waltham, Mass.) and immunoblotted. Prestained molecular weight markers (Biorad, Hercules, Calif.) were included in each gel. Membranes were probed serially with antibody against Stat1 pY^701 or Stat3 pY^705 followed by antibody against Stat1 or Stat3 (Transduction labs, Lexington, Ky.) then antibody against β-actin (Abcam, Cambridge, Mass.). Membranes were stripped between antibody probing using Restore™ Western Blot Stripping Buffer (Thermo Fisher Scientific Inc., Waltham, Mass.) per the manufacturer's instructions. Horseradish peroxidase-conjugated goat-anti-mouse IgG was used as the secondary antibody (Invitrogen Carlsbad, Calif.) and the membranes were developed with enhanced chemiluminescence (ECL) detection system (Amersham Life Sciences Inc.; Arlington Heights, Ill.).
# EXP IIC. Ligand-mediated pStat3 and pStat1 inhibition assays. […] Briefly, human hepatocellular carcinoma cells (HepG2) are grown in 6-well plates and pretreated with compounds (0, 0.1, 0.3, 1, 3, 10, 30, 100 μM) for 1 hour then stimulated under optimal conditions with either interleukin-6 (IL-6; 30 ng/ml for 30 min) to activate Stat3 or interferon gamma (IFN-γ; 30 ng/ml for 30 min) to activate Stat1. Cells are harvested and proteins extracted using high-salt buffer, mixed with 2× sodium dodecyl sulfate (SDS) sample buffer (125 mmol/L Tris-HCL pH 6.8; 4% SDS; 20% glycerol; 10% 2-mercaptoethanol) at a 1:1 ratio then heated for 5 minutes at 100° C. Proteins (20 μg) are separated by 7.5% SDS-PAGE and transferred to polyvinylidene fluoride (PVDF) membrane (Millipore, Waltham, Mass.) and immunoblotted. Membranes are probed serially with antibody against Stat1 pY701 or Stat3 pY705 followed by antibody against Stat 1 or Stat3 (Transduction labs, Lexington, Ky.) then antibody against β-actin (Abcam, Cambridge, Mass.). Membranes are stripped between antibody probings using Restore™ Western Blot Stripping Buffer (Thermo Fisher Scientific Inc., Waltham, Mass.) per the manufacturer's instructions. Horseradish peroxidase-conjugated goat-anti-mouse IgG is used as the secondary antibody (Invitrogen Carlsbad, Calif.) and the membranes are developed with enhanced chemiluminescence (ECL) detection system (Amersham Life Sciences Inc.; Arlington Heights, Ill.). Band intensities are quantified by densitometry. The value of each pStat3 band is divided by its corresponding total Stat3 band intensity; the results are normalized to the DMSO-treated control value. This value was plotted as a function of the log compound concentration. The best-fitting curve is determined using 4-Parameter Logistic Model/Dose Response/XLfit 4.2, IDBS software and was used to calculate the IC50 value.
# MCF7 = experiment: Breast cancer cell line apoptosis assay (nucleosome ELISA); settings: Homo sapiens, MCF7, 24 h
# Protocol: (§1) Breast cancer cell line apoptosis assay. Human breast carcinoma cell lines MDA-MB-468, MDA-MB-231, MBA-MD-435 and MCF7 were kindly provided by Dr. Powel H. Brown (Breast Cancer Center, Baylor College of Medicine). Breast cancer cell line, MDA-MB-453 was kindly provided by Dr. Shou Jiang (Breast Cancer Center, Baylor College of Medicine). All cell lines were grown in DMEM medium supplemented with 10% fetal bovine serum (FBS), 25,000 units penicillin G, 25,000 ug streptomycin, and 131.4 mg L-Glutamine and cultured in the incubator under the condition of 95% air, 5% CO2 at 37° C. (Garcia et al., 2001). Cells were seeded at 2,500 cells/cm^2 into 12-well plates. At 80% confluency, cells were washed with PBS and supplemented with fresh medium containing compound or the topoisomerase I-inhibitor, camptothecin, at 0, 0.1, 03, 1, 3, 10, 30, 100, 300 µM. At 24 hours, treatment was terminated by removing the medium from each well. Cells were lysed with cell lysis buffer (600 μl for 30 minutes at 25° C.). Cell lysate (200 μl) was centrifuged at 200×g for 10 minutes and 20 μl of each supernatant was assayed for nucleosomes using the Cell Death Detection ELISA (Roche Applied Science) as described by the manufacturer. The percent maximum nucleosome level was calculated by dividing the nucleosome level by the maximum nucleosome level achieved in the assay and multiplying by 100. […]
# MDA-MB-453 = experiment: as above; settings: Homo sapiens, MDA-MB-453, 24 h
# Protocol: as §1
smiles,measurement,setting,value
"O=C(O)CSc1cc(NS(=O)(=O)c2ccc(C(=O)O)cc2)c2ccccc2c1O [Cpd188, 4-[({3-[(carboxymethyl)thio]-4-hydroxy-1-naphthyl}amino)sulfonyl]benzoic acid]",Stat1 phosphorylation blocked,Stat1,did not
same,EC50,MCF7,15.5 µM
same,EC50,MDA-MB-453,17.2 µM
